Reference: publication PMC10167348, “Structural mechanisms of TRPM7 activation and inhibition” (Nature Communications, 2023)
Where a chain is given by its changes, count along the chain named. Names may count otherwise.

Assays:
TRPM7-A981V = target: T1, TRPM7-A981V (Mus musculus, UniProt Q923J1, A981V); assay: Aequorin-based Ca2+ influx assay, inhibition of TRPM7-mediated Ca2+ influx; format: cell-based; details: antagonist, mean ± SEM
T1 construct: expressed in transfected cells; host or cells: HEK 293T
T1 sequence (Q923J1 whole entry A981V): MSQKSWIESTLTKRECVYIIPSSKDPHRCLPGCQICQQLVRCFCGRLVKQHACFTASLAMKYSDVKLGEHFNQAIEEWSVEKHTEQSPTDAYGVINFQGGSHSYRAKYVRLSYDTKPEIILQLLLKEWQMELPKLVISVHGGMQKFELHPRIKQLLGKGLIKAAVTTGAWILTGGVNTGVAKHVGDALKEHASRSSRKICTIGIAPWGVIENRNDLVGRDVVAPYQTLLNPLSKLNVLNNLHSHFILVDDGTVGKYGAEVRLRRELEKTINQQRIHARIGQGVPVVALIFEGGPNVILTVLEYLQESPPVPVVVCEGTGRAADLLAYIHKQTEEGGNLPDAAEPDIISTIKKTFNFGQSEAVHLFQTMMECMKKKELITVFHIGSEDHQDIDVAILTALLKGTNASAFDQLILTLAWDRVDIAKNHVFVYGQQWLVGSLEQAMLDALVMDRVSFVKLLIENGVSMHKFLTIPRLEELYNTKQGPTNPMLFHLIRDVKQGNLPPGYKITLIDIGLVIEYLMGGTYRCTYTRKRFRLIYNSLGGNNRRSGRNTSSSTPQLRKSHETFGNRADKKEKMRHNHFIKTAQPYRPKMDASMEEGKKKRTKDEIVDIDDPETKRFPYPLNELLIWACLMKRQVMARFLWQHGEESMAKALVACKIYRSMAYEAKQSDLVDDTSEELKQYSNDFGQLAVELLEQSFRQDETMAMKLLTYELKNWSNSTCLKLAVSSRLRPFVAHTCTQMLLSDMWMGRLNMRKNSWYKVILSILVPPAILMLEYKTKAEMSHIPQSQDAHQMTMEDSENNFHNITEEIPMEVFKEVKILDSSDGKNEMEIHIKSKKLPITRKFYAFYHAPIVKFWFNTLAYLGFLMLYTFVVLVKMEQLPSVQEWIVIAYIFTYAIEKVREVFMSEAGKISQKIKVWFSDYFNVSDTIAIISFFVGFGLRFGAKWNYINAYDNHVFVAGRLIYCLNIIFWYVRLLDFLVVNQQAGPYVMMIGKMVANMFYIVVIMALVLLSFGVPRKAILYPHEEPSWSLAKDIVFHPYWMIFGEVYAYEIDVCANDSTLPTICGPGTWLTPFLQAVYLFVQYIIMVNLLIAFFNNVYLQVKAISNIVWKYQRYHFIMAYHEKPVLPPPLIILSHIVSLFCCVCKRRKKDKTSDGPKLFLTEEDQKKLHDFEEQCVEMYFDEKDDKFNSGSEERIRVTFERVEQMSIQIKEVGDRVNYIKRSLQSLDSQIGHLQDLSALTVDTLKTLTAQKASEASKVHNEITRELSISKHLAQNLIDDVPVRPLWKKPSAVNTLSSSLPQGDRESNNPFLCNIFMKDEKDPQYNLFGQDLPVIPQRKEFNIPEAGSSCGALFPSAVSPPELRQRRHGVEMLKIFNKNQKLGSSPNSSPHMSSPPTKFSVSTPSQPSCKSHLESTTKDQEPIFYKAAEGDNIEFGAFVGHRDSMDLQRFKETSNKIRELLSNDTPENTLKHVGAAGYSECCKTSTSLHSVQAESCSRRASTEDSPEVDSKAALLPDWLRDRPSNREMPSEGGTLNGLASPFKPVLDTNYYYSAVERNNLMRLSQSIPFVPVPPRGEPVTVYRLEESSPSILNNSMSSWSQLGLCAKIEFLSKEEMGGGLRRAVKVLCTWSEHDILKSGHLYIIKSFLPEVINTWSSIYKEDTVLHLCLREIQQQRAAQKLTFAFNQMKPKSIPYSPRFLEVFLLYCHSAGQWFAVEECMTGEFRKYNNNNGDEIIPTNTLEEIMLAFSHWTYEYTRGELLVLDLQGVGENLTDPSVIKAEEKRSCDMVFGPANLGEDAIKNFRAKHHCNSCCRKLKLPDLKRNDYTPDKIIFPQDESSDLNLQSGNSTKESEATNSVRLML
Experimental: (§1) Measurements of [Ca^2+]i were performed as reported previously with several modifications[2],[52],[54]. HEK 293T cells (mycoplasma test negative, ATCC #CRL3216) were maintained at 37 °C and 5% CO2 in DMEM supplemented with 10% fetal calf serum, 100 µg/ml streptomycin and 100 U/ml penicillin (all from Thermo Fisher Scientific). Cells cultured in six-well plates (~60% confluence) were transfected with 2 µg/dish Trpm7 plasmid DNA and 0.1 µg/dish pG5A plasmid DNA encoding eGFP fused to Aequorea victoria aequorin, using Lipofectamine 2000 (Thermo Fisher Scientific). Twenty-four hours after transfection, the cells were washed with Mg^2+-free HEPES-buffered saline (Mg^2+-free HBS) containing 140 mM NaCl, 6 mM KCl, 0.5 mM CaCl2, 10 mM HEPES (pH 7.4) and 5 mM glucose, and mechanically resuspended in the Mg^2+-free HBS. For reconstitution of aequorin, cell suspensions were incubated with 5 µM coelenterazine (Biaffin GmbH) in the Mg^2+-free HBS for 30 min at room temperature. Cells were washed twice by centrifugation at 600 rpm for 5 min (Heraeus Pico 17 microcentrifuge, Thermo Fisher Scientific), resuspended in the Mg^2+-free HBS and aliquoted into 96-well plates (1 × 10^5 cells per well). Luminescence was detected at room temperature using a FLUOstar OPTIMA microplate reader (BMG LABTECH GmbH). To monitor the NS8593- and VER155008-induced inhibition of TRPM7-mediated Ca^2+ influx, the extracellular concentration of Ca^2+ was increased to 5 mM by injecting the CaCl2-containing Mg^2+-free HBS in the absence or presence of the inhibitors. […] To study activation by naltriben, TRPM7-transfected cells were exposed to Mg^2+-free HBS containing different concentrations of the agonist. The experiments were terminated by lysing cells with 0.1% (v/v) Triton X-100 in the Mg^2+-free HBS to record the total bioluminescence. The bioluminescence rates (counts/s) were analyzed at 1-s intervals and calibrated as [Ca^2+]i values using the following equation:1 p[Ca^2+]i=0.332588(−log(k))+5.5593 where k represents the rate of aequorin consumption, i.e., counts/s divided by the total number of counts.
(§2) To determine the IC50 values for NS8593 and VER155008 (EC50 for naltriben), the data were fitted with the following logistic equation:2 Ec=Emin+Emax+Emin/1+c^h/IC50^h where E(c) is the functional effect at the concentration c of the compound, Emin is the minimal effect, Emax is the maximal effect, IC50 (EC50) is the concentration of the compound that produces the half-maximal effect, and h is the Hill coefficient. Fitting of dose-response curves was performed using GraphPad Prism 8.4.0. Data are presented as the mean ± SEM.

TRPM7-M991A = target: T2, TRPM7-M991A (Mus musculus, UniProt Q923J1, M991A); assay: as above; format: cell-based; details: for sensitivity of the mutant to the inhibitor: TRPM7-M991A
T2 construct: expressed in transfected cells; host or cells: HEK 293T
T2 sequence (Q923J1 whole entry M991A): as the sequence (Q923J1 whole entry A981V) above, with V981A, M991A counted along it
Experimental: as §1, §2

TRPM7 WT = target: T3, TRPM7 WT (Mus musculus, UniProt Q923J1); assay: as above; format: cell-based; details: antagonist, mean ± SEM
T3 construct: expressed in transfected cells; host or cells: HEK 293T
T3 sequence (Q923J1 whole entry): as the sequence (Q923J1 whole entry A981V) above, with V981A counted along it
Experimental: as §1, §2

TRPM7-A981L = target: T4, TRPM7-A981L (Mus musculus, UniProt Q923J1, A981L); assay: as above; format: cell-based; details: antagonist, mean ± SEM
T4 construct: expressed in transfected cells; host or cells: HEK 293T
T4 sequence (Q923J1 whole entry A981L): as the sequence (Q923J1 whole entry A981V) above, with V981L counted along it
Experimental: as §1, §2

TRPM7-N1098Q = target: T5, TRPM7-N1098Q (Mus musculus, UniProt Q923J1, N1098Q); assay: as above; format: cell-based; details: N1098Q, antagonist, mean ± SEM
T5 construct: expressed in transfected cells; host or cells: HEK 293T
T5 sequence (Q923J1 whole entry N1098Q): as the sequence (Q923J1 whole entry A981V) above, with V981A, N1098Q counted along it
Experimental: as §1, §2

TRPM7-W1111A = target: T6, TRPM7-W1111A (Mus musculus, UniProt Q923J1, W1111A); assay: as above; format: cell-based; details: antagonist, mean ± SEM
T6 construct: expressed in transfected cells; host or cells: HEK 293T
T6 sequence (Q923J1 whole entry W1111A): as the sequence (Q923J1 whole entry A981V) above, with V981A, W1111A counted along it
Experimental: as §1, §2

wild-type TRPM7 = target: T7, wild-type TRPM7 (Mus musculus, UniProt Q923J1); assay: Whole-cell patch-clamp recordings in HEK 293T cells; format: cell-based; details: 10 µM inhibitor, 450-s exposure, amplitude at +80 mV
T7 construct: expressed in transfected cells; host or cells: HEK 293T
T7 sequence (Q923J1 whole entry): as the sequence (Q923J1 whole entry A981V) above, with V981A counted along it
Experimental: Patch-clamp experiments were performed as reported previously, with a few modifications[69],[70]. HEK 293T cells grown in 35-mm dishes to ~60% confluence were transiently transfected with Trpm7 cDNAs in the pIRES2-EGFP vector (2 µg/dish). Patch-clamp experiments were conducted 18–22 h after transfection with cells displaying EGFP fluorescence. Whole-cell currents were recorded using an EPC10 patch-clamp amplifier and PatchMaster software (Version V2x69, Harvard Bioscience). Voltages were corrected for a liquid junction potential of 10 mV. Currents were elicited by voltage ramps from –100 mV to +100 mV over 50 ms acquired at 0.5 Hz. The inward and outward current amplitudes were measured at –80 mV and +80 mV and were normalized to the cell size as pA/pF. The capacitance was measured using the automated capacitance cancellation function of EPC10. The standard extracellular solution contained 140 mM NaCl, 2.8 mM KCl, 1 mM CaCl2, 2 mM MgCl2, 10 mM HEPES-NaOH, and 11 mM glucose (all from Sigma-Aldrich). Solutions were adjusted to pH 7.2 using an FE20 pH meter (Mettler Toledo) and to 290 mOsm using a Vapro 5520 osmometer (Wescor Inc). […] For the experiment with naltriben, the intracellular solution contained 120 mM Cs-glutamate, 8 mM NaCl, 10 mM Cs-EGTA, 1.5 mM MgCl2, and 10 mM HEPES-CsOH. The intracellular solution was also adjusted to pH 7.2 and 290 mOsm. Data are presented as the mean ± SEM Unless indicated otherwise, data were compared by unpaired t-test (GraphPad Prism 8.4.0). For multiple comparisons, ordinary one-way ANOVA (GraphPad Prism 8.4.0) was used. Significance was accepted at P ≤ 0.05.

[1] = target: the molecule itself; assay: cryo-EM structure; single-particle cryo-EM of purified TRPM7 in GDN or in MSP2N2 lipid nanodiscs (POPC:POPE:POPG), 150 mM NaCl, 20 mM Tris pH 8.0; apo or with naltriben, VER155008 or NS8593; final refinement with C4 symmetry

`N#Cc1ccc(COC[C@H]2O[C@@H](n3c(NCc4ccc(Cl)c(Cl)c4)nc4c(N)ncnc43)[C@H](O)[C@@H]2O)cc1` [VER155008] was tested, and the IC50 (TRPM7-A981V) was “not feasible to calculate the IC50 value”, the IC50 (TRPM7-M991A; M991A, antagonist, no added second inhibitor, mean ± SEM) was “not feasible to calculate the IC50 value” and the “sensitivity of the mutant to the inhibitor” value (TRPM7-M991A; 0.1-10 μM VER155008 (response to reviewers)) was “no sensitivity”. The “sensitivity of the mutant to the inhibitor” value (TRPM7-M991A; 1–10 µM VER) was “not sensitive”, the Hill coefficient (TRPM7 WT) was “–2.07 ± 0.41” and the IC50 (TRPM7 WT) was 0.23 ± 0.03 µM. The IC50 (TRPM7-A981L) was roughly 25 µM, the Hill coefficient (TRPM7-N1098Q) was “–1.32 ± 0.20” and the IC50 (TRPM7-N1098Q) was 1.71 ± 0.25 µM. The IC50 (TRPM7-W1111A) was roughly 10 µM and the “amplitude of TRPM7-mediated currents in the presence of inhibitor” value (wild-type TRPM7) was “greatly reduced”.

B1: C-terminally truncated mouse TRPM7 (residues 1–1280), wild type (natural protein, UniProt Q923J1 1-1280, looked up)
chain: MSQKSWIESTLTKRECVYIIPSSKDPHRCLPGCQICQQLVRCFCGRLVKQHACFTASLAMKYSDVKLGEHFNQAIEEWSVEKHTEQSPTDAYGVINFQGGSHSYRAKYVRLSYDTKPEIILQLLLKEWQMELPKLVISVHGGMQKFELHPRIKQLLGKGLIKAAVTTGAWILTGGVNTGVAKHVGDALKEHASRSSRKICTIGIAPWGVIENRNDLVGRDVVAPYQTLLNPLSKLNVLNNLHSHFILVDDGTVGKYGAEVRLRRELEKTINQQRIHARIGQGVPVVALIFEGGPNVILTVLEYLQESPPVPVVVCEGTGRAADLLAYIHKQTEEGGNLPDAAEPDIISTIKKTFNFGQSEAVHLFQTMMECMKKKELITVFHIGSEDHQDIDVAILTALLKGTNASAFDQLILTLAWDRVDIAKNHVFVYGQQWLVGSLEQAMLDALVMDRVSFVKLLIENGVSMHKFLTIPRLEELYNTKQGPTNPMLFHLIRDVKQGNLPPGYKITLIDIGLVIEYLMGGTYRCTYTRKRFRLIYNSLGGNNRRSGRNTSSSTPQLRKSHETFGNRADKKEKMRHNHFIKTAQPYRPKMDASMEEGKKKRTKDEIVDIDDPETKRFPYPLNELLIWACLMKRQVMARFLWQHGEESMAKALVACKIYRSMAYEAKQSDLVDDTSEELKQYSNDFGQLAVELLEQSFRQDETMAMKLLTYELKNWSNSTCLKLAVSSRLRPFVAHTCTQMLLSDMWMGRLNMRKNSWYKVILSILVPPAILMLEYKTKAEMSHIPQSQDAHQMTMEDSENNFHNITEEIPMEVFKEVKILDSSDGKNEMEIHIKSKKLPITRKFYAFYHAPIVKFWFNTLAYLGFLMLYTFVVLVKMEQLPSVQEWIVIAYIFTYAIEKVREVFMSEAGKISQKIKVWFSDYFNVSDTIAIISFFVGFGLRFGAKWNYINAYDNHVFVAGRLIYCLNIIFWYVRLLDFLAVNQQAGPYVMMIGKMVANMFYIVVIMALVLLSFGVPRKAILYPHEEPSWSLAKDIVFHPYWMIFGEVYAYEIDVCANDSTLPTICGPGTWLTPFLQAVYLFVQYIIMVNLLIAFFNNVYLQVKAISNIVWKYQRYHFIMAYHEKPVLPPPLIILSHIVSLFCCVCKRRKKDKTSDGPKLFLTEEDQKKLHDFEEQCVEMYFDEKDDKFNSGSEERIRVTFERVEQMSIQIKEVGDRVNYIKRSLQSLDSQIGHLQDLSALTVDTLKTLTAQKASEASKVHNEITRELSISKHLAQNLID
notes: mouse TRPM7 (Trpm7 cDNA NM_021450), truncated C-terminally, protein residues 1–1280; lacks the kinase domain; A thrombin cleavage site (LVPRG) stands between GFP and TRPM7; the purification as described has no thrombin step; also called TRPM7_(Closed); TRPM7_(NTB-open); source: HEK 293S GnTI- cells, baculovirus-transduced (pEG-BacMam), purified (strep resin, SEC); in GDN or reconstituted in …
In the case of B1, the “stoichiometry N” value [1] is reported as 4.

B2: C-terminally truncated mouse TRPM7 (residues 1–1280) with the gain-of-function mutation N1098Q (natural protein, UniProt Q923J1 1-1280, looked up)
chain: B1 chain with N1098Q
notes: mouse TRPM7 (Trpm7 cDNA NM_021450), truncated C-terminally, protein residues 1–1280, with N1098Q; Same construct as m1 with the point mutation; a thrombin cleavage site (LVPRG) stands between GFP and TRPM7, no thrombin step is described; also called TRPM7-N1098Q; TRPM7-N1098Q_(open); source: HEK 293S GnTI- cells, baculovirus-transduced (pEG-BacMam), purified (strep resin, SEC); in GDN
B2: binds [1].
